Data on 32 compounds can be found in US20030232801A1, “Identification of compounds for the treatment or prevention of proliferative diseases” (priority 2001, published 2003).

Assay [1] has as its system 6D-2 cells (MCF-7 human breast cancer cells stably transfected with luciferase linked to the 5′ and 3′UTRs of human HER2). As to the kind of experiment: Cellular toxicity, MTS cell viability, 6D-2 cells. Particulars: for IC50: MTS viability. It is filed as cell-based. The method, then: (§1) 6D-2 cells (MCF-7 human breast cancer cells stably transfected with luciferase linked to the 5′ and 3′UTRs of human HER2) were added to 96-well plates at 7500 cells per well in 200 μL medium and incubated for 24 hours at 100% humidity, 5% CO2, and 37° C. Compounds were diluted from DMSO stock solutions into medium and were added at various concentrations. The 6D-2 cells were incubated for 16 hours at which time the volume of medium in each well was reduced to 100 μL using a plate washer. 20 μL of MTS cell viability reagent (Promega, Madison, Wis.) was then added to each well, and the plates were incubated for 1-4 hours. A plate containing wells with 100 μL medium plus MTS reagent was prepared to determine the background reading. The plates were read on the Wallac 2 plate reader (PerkinElmer Life Science, Boston, Mass.) at 490 nm. Percent viability was calculated as (O.D. of compound treated cells−background O.D.)/(O.D. of DMSO treated cells−background O.D.)×100. MT-4 cells (adult human T-cell leukemia cells) were plated at 1.5×10^5 cells per well in 200 μL medium and incubated for at least one hour before the addition of compounds. The cells were incubated for 5 days at 100% humidity, 5% CO2, and 37° C. Cell viability was determined as described for 6D-2 cells.
(§2) Compounds of the invention containing a pyrrolidine substituent were tested for toxicity to cancerous and non-cancerous cells. 6D-2 cellular activity is representative of potency as an antitumor agent. MT-4 cellular activity is representative of general toxicity. A high IC50 for MT-4 cells and a low IC50 for 6D-2 cells is indicative of a compound of potential therapeutic use in treating or preventing proliferative diseases, such as cancer.

Assay [2] deals with MT-4 cells (adult human T-cell leukemia cells). As to the kind of experiment: Cellular toxicity, MTS cell viability, MT-4 cells. The note with it: for IC50: 5 day, MTS viability. It is filed as cell-based. The method, then:
as §1, §2

Assay [3] can be described thus: Cellular toxicity, MTS cell viability, 6D-2 cells. It is filed as cell-based, human. The note with it: Homo sapiens, MCF7, MTS viability. As for the experimental part: as §1, §2

Take `NCC(=O)c1cccc(NC2=C(N3CCCC3)C(=O)c3ccccc3C2=O)c1` [Example 13, 2-(N-3-aminoacetylanilino)-3-pyrrolidino-1,4-naphthoquinone]: in assay [1], the “6D-2 24 hr, percent @.10 μM” value is recorded as 70% @.10 μM. Also, the “MT-4 5 day, percent @.10 μM” value in assay [2] worked out at 80% @.10 μM.

As for `CC1CCCN1C1=C(Nc2ccc(F)cc2)C(=O)c2ccccc2C1=O` (stereo not shown) [Example 18, 2-(N-4-fluoroanilino)-3-(2-methylpyrrolidino)-1,4-naphthoquinone], the figures for the concentration for half-maximal inhibition (IC50) in assay [1] and in assay [2] were 2.63 µM and 5.24 µM, respectively.

In assay [1], `O=C1C(Nc2ccc(F)c(F)c2)=C(N2CCCC2)C(=O)c2ccccc21` [Example 29, 2-(N-3,4-difluoroanilino)-3-pyrrolidino-1,4-naphthoquinone] had an IC50 of 2.34 µM. In addition, the “MT-4 5 day, percent @ 10 μM” value in assay [2] was 40% @ 10 μM.

As to `COC[C@@H]1CCCN1C1=C(Nc2ccc(F)cc2)C(=O)c2ccccc2C1=O` [Example 19, 2-(N-4-fluoroanilino)-3-(2-(S)-methoxymethylpyrrolidino)-1,4-naphthoquinone], the IC50 in assay [1] is 8.95 µM. The “MT-4 5 day, percent @.10 μM” value in assay [2] came out at 97% @.10 μM.

As to `O=C1C(Nc2ccc(F)cc2)=C(N2CCCC2)C(=O)c2ncccc21` [Example 5, 6-(N-4-fluoroanilino)-7-pyrrolidino-5,8-quinolinedione], the IC50 in assay [1] turned out to be 0.77 µM; in assay [2] it was 6.69 µM.

With `O=C1C(Nc2ccccc2)=C(N2CCCC2)C(=O)c2ccccc21` [Example 14, 2-(N-anilino)-3-pyrrolidino-1,4-naphthoquinone], the IC50 turned out to be 0.76 µM in assay [1] and 2.1 µM in assay [2].

As to `CN(C)C1=C(Nc2cccc(F)c2)C(=O)c2ccccc2C1=O` [Example 17, 2-(N-3-fluoroanilino)-3-dimethylamino-1,4-naphthoquinone], the IC50 in assay [1] stood at 10 µM. In addition, the “MT-4 5 day, percent @.10 μM” value in assay [2] stood at 100% @.10 μM.

Turning to `COc1ccc(NC2=C(N3CCCC3)C(=O)c3ccccc3C2=O)cn1` [Example 8, 2-(N-2-methoxy-5-aminopyridine)-3-pyrrolidino-1,4-naphthoquinone], the IC50 in assay [1] is 0.12 µM; in assay [2], 1.11 µM.

In assay [1], `NC(=O)Nc1ccc(NC2=C(N3CCCC3)C(=O)c3ccccc3C2=O)cc1` [Example 28, 2-(N-(4-carbamidoanilino))-3-pyrrolidino-1,4-naphthoquinone] registered an IC50 of 0.31 µM. In assay [2], the “MT-4 5 day, percent @ 10 μM” value is on record as 56% @ 10 μM.

As for `CC(C)NC(=S)Nc1ccc(NC2=C(N3CCCC3)C(=O)c3ccccc3C2=O)cc1` [Example 11, N^1-4-((3-pyrrolidino-1,4-naphthalenedion-2-yl)amino)phenyl-N^2-(1-methylethyl)thiourea], the concentration for half-maximal inhibition (IC50) in assay [1] amounted to 0.33 µM; in assay [2], 6.15 µM.

For `O=C(Nc1ccccc1)Nc1ccc(NC2=C(N3CCCC3)C(=O)c3ccccc3C2=O)cc1` [Example 25, N^1-4-((3-pyrrolidino-1,4-naphthalenedion-2-yl)amino)phenyl-N^2-phenylurea], the IC50 in assay [1] stood at 1.06 µM; in assay [2], 2.22 µM.

With `Nc1ccc(C(=O)N(C2=C(N3CCCC3)C(=O)c3ccccc3C2=O)c2ccccc2)cc1` [Example 15, 2-(N-4-aminobenzoylanilino)-3-pyrrolidino-1,4-naphthoquinone], the “6D-2 24 hr, percent @.10 μM” value in assay [1] was 60% @.10 μM. Also, the midpoint of inhibition in assay [2] (Homo sapiens, MT4, 120 h), the IC50, lay at 1 µM.

On to `CNC(=O)Nc1ccc(NC2=C(N3CCCC3)C(=O)c3ccccc3C2=O)cc1` [Example 26], for which the figures for the IC50 in assay [1] and in assay [2] were 0.11 µM and 0.75 µM, respectively.

On to `Nc1ccc(NC2=C(N3CCCC3)C(=O)c3ccccc3C2=O)cc1` [Example 7, 2-(N-4-aminoanilino)-3-pyrrolidino-1,4-naphthoquinone], for which the half-maximal inhibitory concentration (IC50) in assay [1] is 0.07 µM; in assay [2], 0.16 µM.

For `CC(=O)Nc1ccc(NC2=C(N3CCCC3)C(=O)c3ccncc3C2=O)cc1` [Example 3B, 7-(N′-4-aminoacetanilide)-6-pyrrolidino-5,8-isoquinolinedione], the results for the IC50 in assay [1] and in assay [2] were 4.08 µM and 6.79 µM, respectively.

Consider `CNC(=S)Nc1ccc(NC2=C(N3CCCC3)C(=O)c3ccccc3C2=O)cc1` [Example 12, N^1-4-((3-pyrrolidino-1,4-naphthalenedion-2-yl)amino)phenyl-N^2-methylthiourea], for which the half-maximal inhibitory concentration (IC50) in assay [1] came to 0.1 µM; in assay [2] it was 8.7 µM.

On to `CC(C)NC(=O)Nc1ccc(NC2=C(N3CCCC3)C(=O)c3ccccc3C2=O)cc1` [Example 24, N′-4-((3-pyrrolidino-1,4-naphthalenedion-2-yl)amino)phenyl-N^2-(1-methylethyl)urea], for which the IC50 came out at 0.18 µM in assay [1] and 1.68 µM in assay [2].

As for `Nc1ccc2c(c1)C(=O)C(N1CCCC1)=C(Nc1ccc(F)c(F)c1)C2=O` [Example 31, 6-Amino-2-(N-3,4-difluoroanilino)-3-pyrrolidino-1,4-naphthoquinone], the IC50 was 1.5 µM in assay [1] and 0.3 µM in assay [2].

With `COC(=O)Nc1ccc2c(c1)C(=O)C(N1CCCC1)=C(Nc1ccc(F)c(F)c1)C2=O` [Example 32, 6-[(methoxycarbonyl)amino]-2-(N-3,4-difluoroanilino)-3-pyrrolidino-1,4-naphthoquinone], the IC50 in assay [1] stood at 4 µM; in assay [2], 7 µM.

With `COCCNC(=O)Nc1ccc(NC2=C(N3CCCC3)C(=O)c3ccccc3C2=O)cc1` [Example 27, N′-4-((3-pyrrolidino-1,4-naphthalenedion-2-yl)amino)phenyl-N^2-(2-methoxyethyl)urea], the half-maximal inhibitory concentration (IC50) in assay [1] came out at 0.21 µM; in assay [2], 0.56 µM.

As for `O=C(Nc1ccc(NC2=C(N3CCCC3)C(=O)c3ccccc3C2=O)cc1)c1ccco1` [Example 20, 2-(4-(2-furanoylamino)phenylamino)-3-pyrrolidino-1,4-naphthoquinone], the IC50 in assay [3] was found to be 0.06 µM; in assay [2] (Homo sapiens, MT4, 120 h), 0.11 µM.

In the case of `CC(C)(C)OC(=O)Nc1ccc(NC2=C(N3CCCC3)C(=O)c3ccccc3C2=O)cc1` [Example 6, N-4-((3-pyrrolidino-1,4-naphthalenedion-2-yl)amino)phenyl-O-1.1-dimethylethylcarbamate], the IC50 in assay [1] was 0.57 µM; in assay [2] it was 2.78 µM.

In the case of `O=C1C(Nc2ccc(F)cc2)=C(N2CCCC2)C(=O)c2ccccc21` [Example 30, 2-(N-4-Fluoroanilino)-3-pyrrolidino-1,4-naphthoquinone], the half-maximal inhibitory concentration (IC50) turned out to be 0.52 µM in assay [1] and 4.47 µM in assay [2].

On to `Cc1cc(=O)oc2cc(NC3=C(N4CCCC4)C(=O)c4ccccc4C3=O)ccc12` [Example 10, 7-((3-pyrrolidino-1,4-naphthalenedion-2-yl)amino)-4-methylcoumarin], for which the IC50 in assay [3] stood at 6.78 µM; in assay [2] (Homo sapiens, MT4, 120 h) it was 1.18 µM.

As for `CC(=O)Nc1ccc(NC2=C(N3CCCC3)C(=O)c3cnccc3C2=O)cc1` [Example 3A, 6-(N′-4-aminoacetanilide)-7-pyrrolidino-5,8-isoquinolinedione], the IC50 is 0.37 µM in assay [1] and 5.16 µM in assay [2].

Take `CC(C)OC(=O)Nc1ccc(NC2=C(N3CCCC3)C(=O)c3ccccc3C2=O)cc1` [Example 21, N-4-((3-pyrrolidino-1,4-naphthalenedion-2-yl)amino)phenyl-O-(1-methylethyl)carbamate]: the IC50 was determined as 1.38 µM in assay [1] and 2 µM in assay [2].

For `COC(=O)Nc1ccc(NC2=C(N3CCCC3)C(=O)c3ccccc3C2=O)cc1` [Example 22, N-4-((3-pyrrolidino-1,4-naphthalenedion-2-yl)amino)phenyl-O-methylcarbamate], the values for the IC50 in assay [1] and in assay [2] were 0.14 µM and 0.47 µM, respectively.

As to `COc1ccc(NC2=C(N3CCCC3)C(=O)c3ccccc3C2=O)cc1` [Example 9, 2-(N-4-methoxyanilino)-3-pyrrolidino-1,4-naphthoquinone], the figures for the half-maximal inhibitory concentration (IC50) in assay [1] and in assay [2] were 0.1 µM and 0.52 µM, respectively.

As for `O=C1C(Nc2ccc(F)cc2)=C(N2CCCC2)C(=O)c2cnccc21` [Example 4, 6-(N′-4-fluoroanilino)-7-pyrrolidino-5,8-isoquinolinedione], the values for the IC50 in assay [1] and in assay [2] were 1.48 µM and 2.51 µM, respectively.

Consider `O=C1C(Nc2cccc(F)c2)=C(N2CCCC2)C(=O)c2ccccc21` [Example 16, 2-(N-3-fluoroanilino)-3-pyrrolidino-1,4-naphthoquinone], for which the IC50 in assay [1] worked out at 1.36 µM. Further, the “MT-4 5 day, percent @.10 μM” value in assay [2] is reported as 68% @.10 μM.

Regarding `O=C1C(Nc2ccc(F)c(F)c2)=C(N2CCCC2)C(=O)c2ccc([N+](=O)[O-])cc21` [Example 33, 7-Nitro-2-(N-3,4-difluoroanilino)-3-pyrrolidino-1,4-naphthoquinone], the IC50 in assay [1] stood at 1 µM; in assay [2], 0.7 µM.

For the compound `COC(=O)Nc1cccc(NC2=C(N3CCCC3)C(=O)c3ccccc3C2=O)c1` [Example 23, N-3-((3-pyrrolidino-1,4-naphthalenedion-2-yl)amino)phenyl-O-methylcarbamate], the half-maximal inhibitory concentration (IC50) stood at 0.87 µM in assay [1] and 10.2 µM in assay [2].

The IC50 is the concentration needed to halve the response being measured. High values mean lower potency, low ones higher potency.
